Read-outs that look alike come from different tables or passages of the source. Each block holds one molecule with its values, some of them ahead of it.
Target: T1, KMO mouse enzyme (Mus musculus, UniProt Q91WN4)
T1 construct: KMO enzyme prepared at Evotec from mouse liver (4-6 weeks old) via mitochondria isolation; from tissue; host or cells: mouse liver (4-6 weeks old), mitochondria isolation, prepared at Evotec
Assay: KMO enzyme assay: L-Kynurenine hydroxylation to 3-Hydroxy-Kynurenine by LC/MS (protocols substantially similar to Biology Example 3)
Format: biochemical
Details: for inhibition at 10 µM: compound at 10 uM (stated in cell; head says 30 μM)
Procedure: A method of monitoring L-Kynurenine (KYN) hydroxylation to form 3-Hydroxy-Kynurenine (30H-KYN) by LC/MS is described. Product is quantified by multiple reaction monitoring (MRM method).
• Compound: Stock concentrations: 10 mM in 100% DMSO • Enzyme: KMO enzyme prepared at Evotec from mouse liver (4-6 weeks old) via mitochondria isolation as described in the literature • Substrate: L-Kynurenine (Sigma: Cat# K3750, stock concentration: 10 mM in 100 mM potassium phosphate buffer, pH 7.4) Assay Conditions: • Buffer: 100 mM potassium phosphate, pH 7.4, 200 μM NADPH, 0.4 U/ml G6P-DH (Glucose 6-phosphate Dehydrogenase), 3 mM G6P (D-Glucose 6-phosphate) • Assay Volume: 40 μl • Plate Format: 384 well plate, transparent (Matrix) • Read-Out: product (30H-KYN) quantification using product specific MRM • Reader: LC/MS/MS Assay Protocol: • prepare serial dilution (factor 3) of compound in 100% DMSO (top concentration=10 mM, 100% DMSO) • [8 points: 10 mM; 3.33 mM; 1.11 mM; 0.37 mM; 0.12 mM; 0.04 mM; 0.0137 mM; 0.0045 mM, 0.0015 mM] • prepare […] concentrated solution of each compound concentration (top concentration 300 μM, 3% DMSO) in assay buffer • [concentrations: 300 μM; 100 μM; 33.3 μM; 11.1 μM; 3.70 μM; 1.23 μM; 0.41 μM; 0.137 μM] • prepare substrate (10 mM) at concentration of 1 mM in assay buffer • assay mix: 4 μl compound/well of each concentration+24 μl assaybuffer/well+8 μl KMO mouse enzyme+4 μl 1 mM substrate (final concentration=100 μM) • [final compound top concentration: 30 μM; 0.3% DMSO] • [final compound bottom concentration: 0.0137 μM; 0.3% DMSO] • positive control: 4 μl […] FCE28833 in assay buffer, 0.5% DMSO [final assay concentration=50 μM]+24 μl assaybuffer/well+8 μl KMO mouse enzyme+4 μl 1 mM substrate[final concentration=100 μM] • negative control: 28 μl assay buffer/well+8 μl KMO mouse enzyme+4 μl 1 mM substrate [final concentration=100 μM] • incubate 40 min at RT • add 40 μl/well 10% trichloro acetic acid in water to stop the assay and precipitate protein • centrifuge plate for 3 min at 4000 rpm • product detection by LC/MS (injection of 20 μl/well, 2 fold overfill of the 10 μl sample loop) Data Analysis:
IC50's are calculated using automated fitting algorithm (A+ Analysis).
Using the assay protocols substantially similar to those of Biology Example 3, the following compounds were tested.

[1] = compound at 30 μM, Biology Example 4 table, read-out: Percent Inhibition at 30 μM
[2] = compound at 30 μM, tables of Methods 1-6, read-out: % Inhibition at 30 μM

T1 sequence (Q91WN4 whole entry): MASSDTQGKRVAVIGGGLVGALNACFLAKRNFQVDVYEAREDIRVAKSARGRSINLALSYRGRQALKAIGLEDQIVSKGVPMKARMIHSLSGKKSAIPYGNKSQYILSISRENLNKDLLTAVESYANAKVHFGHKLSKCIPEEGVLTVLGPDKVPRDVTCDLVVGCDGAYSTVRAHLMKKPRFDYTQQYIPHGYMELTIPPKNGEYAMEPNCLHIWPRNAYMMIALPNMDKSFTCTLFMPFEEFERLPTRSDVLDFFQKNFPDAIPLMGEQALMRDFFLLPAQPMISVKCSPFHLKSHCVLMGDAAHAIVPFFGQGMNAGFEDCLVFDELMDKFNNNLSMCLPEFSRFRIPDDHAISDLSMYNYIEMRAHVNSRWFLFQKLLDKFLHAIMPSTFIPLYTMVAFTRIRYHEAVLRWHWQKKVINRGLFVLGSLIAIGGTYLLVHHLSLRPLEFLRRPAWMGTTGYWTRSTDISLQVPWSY

SMILES: O=C(O)[C@H]1C[C@@H]1C(=O)c1ccc(Cl)s1 [Example 1, Method 1, (1S,2S)-2-[(5-Chlorothiophen-2-yl)carbonyl]cyclopropane-1-carboxylic acid]
inhibition at 30 µM [1]: 101% | inhibition at 30 µM [2]: 101%

SMILES: O=C(O)[C@H]1C[C@@H]1C(=O)c1nccs1 [Example 1, Method 2, (1S,2S)-2-[(1,3-Thiazol-2-yl)carbonyl]cyclopropane-1-carboxylic acid]
inhibition at 10 µM (Biology Example 4 table, read-out: Percent Inhibition (at 10 uM)): 28.7% | inhibition at 10 µM (table of Method 2, read-out: % Inhibition (at 10 uM)): 28.7%

SMILES: Cc1nc2ccc(C(=O)[C@H]3C[C@@H]3C(=O)O)cc2s1 [Example 1, Method 3, (1S,2S)-2-(2-Methyl-1,3-benzothiazole-6-carbonyl)cyclopropane-1-carboxylic acid]
inhibition at 30 µM [1]: 74.5% | % Inhibition at 30 μM (compound at 30 μM, tables of Methods 1-6, 30 µM): 98.3%

SMILES: O=C(O)[C@H]1C[C@@H]1C(=O)c1cc(Cl)c2occc2c1 [Example 1, Method 4, (1S,2S)-2-(7-Chloro-1-benzofuran-5-carbonyl)cyclopropane-1-carboxylic acid]
inhibition at 30 µM [1]: 100% | inhibition at 30 µM [2]: 100%

SMILES: Cc1cc2cc(C(=O)[C@H]3C[C@@H]3C(=O)O)cc(Cl)c2o1 [Example 1, Method 6, (1S,2S)-2-(7-chloro-2-methyl-1-benzofuran-5-carbonyl)cyclopropane-1-carboxylic acid]
inhibition at 30 µM [2]: 102%

SMILES: O=C(O)[C@H]1C[C@@H]1C(=O)c1ccsc1 [Example 2, Method 1, (1S,2S)-2-[(Thiophen-3-yl)carbonyl]cyclopropane-1-carboxylic acid]
inhibition at 30 µM [1]: 83.2% | inhibition at 30 µM [2]: 83.2%

Continued, values first:

inhibition at 30 µM [1]: 91.8% | inhibition at 30 µM [2]: 91.8%
SMILES: O=C(O)[C@H]1C[C@@H]1C(=O)c1nc2ccccc2s1 [Example 2, Method 2, (1S,2S)-2-[(1,3-Benzothiazol-2-yl)carbonyl]cyclopropane-1-carboxylic acid]

inhibition at 30 µM [1]: 101% | inhibition at 30 µM [2]: 101%
SMILES: O=C(O)[C@H]1C[C@@H]1C(=O)c1cc(Cl)c2nccnc2c1 [Example 2, Method 3, (1S,2S)-2-(8-Chloroquinoxaline-6-carbonyl)cyclopropane-1-carboxylic acid]

inhibition at 30 µM [1]: 80.3% | inhibition at 30 µM [2]: 80.3%
SMILES: O=C(O)[C@H]1C[C@@H]1C(=O)c1cccs1 [Example 3, Method 1, (1S,2S)-2-[(Thiophen-2-yl)carbonyl]cyclopropane-1-carboxylic acid]

inhibition at 30 µM [1]: 45.6% | inhibition at 30 µM [2]: 45.6%
SMILES: O=C(O)[C@H]1C[C@@H]1C(=O)c1ccccn1 [Example 3, Method 2, (1S,2S)-2-[(Pyridin-2-yl)carbonyl]cyclopropane-1-carboxylic acid]

inhibition at 30 µM [1]: 100% | inhibition at 30 µM [2]: 100%
SMILES: O=C(O)[C@H]1C[C@@H]1C(=O)c1cc(Cl)c2ncccc2c1 [Example 3, Method 3, (1S,2S)-2-(8-Chloroquinoline-6-carbonyl)cyclopropane-1-carboxylic acid]
